According to paper PMC8910920 (International Journal of Molecular Sciences, 2022):

Key:
[1] = system: CACO-2 cell monolayers; assay: Caco-2 permeability; type: in vitro ADME
Description: These studies were subcontracted to Eurofins-CEREP or Eurofins-PANLABS. Briefly, agonists and antagonist assays were performed in cell cultures overexpressing the corresponding channel (CHO: TRPV1 and TRPA1; HEK293: TRPV3 and ASIC3). In vitro pharmacology, cellular channel functional assays: the compound was prepared in assay buffer to the final concentration, 10 μM. The compound wells, reference agonist and background vehicle controls were prepared in DMSO at 0.3%. The reference agonist for each Ion Channel assayed was prepared in a similar manner to serve as the assay control. The reference agonist for each Ion Channel was included at Emax (the concentration where the reference agonist elicited a maximal response). The agonist assay was conducted on fluorimeter instruments where the test compound, vehicle controls, and reference agonist were added to the assay plate after a fluorescence baseline was established. The agonist assay was used to assess each compound’s ability to activate each Ion Channel assayed. For the antagonist assay, the compound was pre-incubated for five minutes at room temperature, and then challenged with the EC80 concentration of the reference agonist after establishment of a fluorescence baseline. Vehicle controls and EC80 concentration of reference agonist were added to appropriate wells. The antagonist assay was used to assess each compound’s ability to inhibit activation by the corresponding Ion Channel agonist. ASIC3 ionflux antagonist assay: all recordings were obtained from a holding potential of -60 mV. The compound addition sequence was as follows: one addition of pH5.5 buffer was added to establish the baseline response, the test concentration of compound was applied for 30 s, followed by the addition of pH5.5 of compound for 2 s. Binding assays were performed in CHO cell cultures overexpressing human CGRPR, CB2 and M2 receptors. RGM8-51 (10 μM) was tested, and reference compounds used as control agonists and antagonists are detailed in Table 2, footnote. Binding assay results are expressed as a percent of control specific binding. […] Aqueous solubility (μM) was determined by comparing the peak area of the principal peak in a calibration standard (200 μM) containing organic solvent (methanol/water, 60/40, v/v) with the peak area of the corresponding peak in a buffer sample. Partition coefficient: the total amount of compound was determined as the peak area of the principal peak in a calibration standard (100 μM) containing organic solvent (methanol/water, 60/40, v/v). The amount of compound in buffer was determined as the combined, volume-corrected, and weighted areas of the corresponding peaks in the aqueous phases of three organic-aqueous samples of different composition. An automated weighting system was used to ensure the preferred use of raw data from those samples with well quantifiable peak signals. The amount of compound in organic phase was calculated by subtraction. Subsequently, Log D was calculated as the Log10 of the amount of compound in the organic phase divided by the amount of compound in the aqueous phase. […] Permeability was measured in CACO-2 monolayers. Percentage of compounds in the receptors wells was measured using HPLC. […] In vitro metabolism was measured in human liver microsomes. […] The apparent intrinsic clearance (CLint, in μL/min/mg) was calculated from the half-life time.

[2] = Partition coefficient (Log D); type: physicochemical
Description: These studies were subcontracted to Eurofins-CEREP or Eurofins-PANLABS. Briefly, agonists and antagonist assays were performed in cell cultures overexpressing the corresponding channel (CHO: TRPV1 and TRPA1; HEK293: TRPV3 and ASIC3). In vitro pharmacology, cellular channel functional assays: the compound was prepared in assay buffer to the final concentration, 10 μM. The compound wells, reference agonist and background vehicle controls were prepared in DMSO at 0.3%. […] The reference agonist for each Ion Channel was included at Emax (the concentration where the reference agonist elicited a maximal response). The agonist assay was conducted on fluorimeter instruments where the test compound, vehicle controls, and reference agonist were added to the assay plate after a fluorescence baseline was established. […] For the antagonist assay, the compound was pre-incubated for five minutes at room temperature, and then challenged with the EC80 concentration of the reference agonist after establishment of a fluorescence baseline. […] Binding assay results are expressed as a percent of control specific binding. […] Aqueous solubility (μM) was determined by comparing the peak area of the principal peak in a calibration standard (200 μM) containing organic solvent (methanol/water, 60/40, v/v) with the peak area of the corresponding peak in a buffer sample. […] Permeability was measured in CACO-2 monolayers.

C[C@@H]1C(=O)N(C[C@H](Cc2ccccc2)N(Cc2ccccc2)Cc2ccccc2)[C@]1(Cc1ccccc1)C(=O)OC(C)(C)C [RGM8-51, 4(S)-Benzyl-3S-methyl-4-(tert-butoxy)carbonyl-1-[(2′S-dibenzylamino-3′-phenyl)prop-1′-yl]-2-oxoazetidine]
permeation of CACO-2 cell monolayers [1]: not able to permeate | Permeability B-A (%) ([1]; CACO-2 cell monolayer): 0% | Permeability A-B (%) ([1]; CACO-2 cell monolayer, percentage of compound in the acceptor cell): 0% | Log D [2]: 5.7 | logD ([2]; organic phase/aqueous buffer partition): 5.77
